# How the values were obtained:
# APP/PS1ΔE9 mice = assay: Open field experiment (anxiety symptoms); assay type: in vivo, mouse; details: 2 months of administration
# Method: (§1) Gemfibrozil was administered to 8-month-old APP/PS1ΔE9 mice (male and female halves). Gemfibrozil was first dissolved in dimethyl sulfoxide (DMSO) at a concentration of 50 mg/mL, and then diluted to a final concentration of 50 μg/mL with mouse drinking water to obtain a drug solution. The mice in the administration group were allowed to freely drink the drug solution containing gemfibrozil, in which the final concentration of DMSO in the solution was 0.1%; and the mice in the control group were allowed to drink water containing 0.1% DMSO freely. All drinking devices contained with Gemfibrozil were wrapped in aluminum foil to prevent decomposition by exposure. During dosing, the drug solution was replaced every 2 days. Mice were measured daily for water consumption. After 2 months of dosing, all mice were subjected to behavioural experiments. Mice were placed in the laboratory to be behaviourally tested one hour prior to the start of daily behavioural studies, and all behavioural experiments were completed between 9 and 17 o'clock. All experiments involving animals were approved by Animal Ethics Committee of the Kunming Institute of Zoology, CAS. We evaluated the anxiety symptom behavior of APP/PS1ΔE9 mice 2 months after administration of Gemfibrozil using an open field experiment. […]
# hippocampal neurons = assay: Golgi staining, dendritic spine density in mouse brain neurons; assay type: in vivo; details: hippocampal neurons of APP/PS1ΔE9 mice treated for 2 months (C-D in FIG. 3)
# Method: as §1, with “7.” for “We evaluated the anxiety symptom behavior of APP/PS1ΔE9 mice 2 months after administration of Gemfibrozil using an open field experiment.”
structure (smiles),measurement,setting,value
"Cc1ccc(C)c(OCCCC(C)(C)C(=O)O)c1 [Gemfibrozil, 2,2-dimethyl-5-(2,5-dimethylphenoxy) pentanoic acid]",anxiety symptoms,APP/PS1ΔE9 mice; vs control group,significantly alleviated
same,lingering time in the open field central region,"APP/PS1ΔE9 mice; vs control group (A, C in FIG. 2)",significantly increased
same,dendritic spine density,hippocampal neurons,significantly up-regulated

# From patent US12048680B2, “Use of Gemfibrozil and derivative thereof for treatment and/or prevention of neurodegenerative disease” (Kunming Institute of Zoology Chinese Academy of Sciences, priority 2018, dated 2024)
